Consider 1 molecule from patent US20250115613A1, “DIARYL COMPOUND AS TUBULIN/SRC DUAL TARGET INHIBITOR” (Wuhan Humanwell Innovative Drug Research and Development …, priority 2022, published 2025).

In one data set the test system is tubulin monomer. Nature of the data set: Inhibition test of tubulin monomer polymerization (Tubulin polymerization assay kit). The class given is biochemical. The settings on record: maximum fluorescence signal of polymerization curve; 5 μL of 12.5 μM compound solution; 37° C.; higher value = lower inhibitory efficiency. On the procedure:
Tubulin polymerization assay kit (cytoskeleton, Cat. #BK011P) was used to conduct the compound inhibition test of tubulin monomer polymerization.
Before the test, the 96-well plate (Corning Costar, Cat. #3686) supplied with the kit was first placed in a microplate reader (MD, SpectraMax M5) and heated to 37° C., maintained for 10 minutes. The 96-well plate was then removed, and 5 μL of 12.5 μM compound solution or blank solution was added thereto. The 96-well plate was then placed back into the microplate reader and incubated at 37° C. for 1 minute to heat the compound solution to 37° C. The 96-well plate was removed and 50 μL of reaction mixture prepared according to the supplier's instructions was quickly added to each well, completing the sample addition within 1 minute to avoid the formation of bubbles. The 96-well plate was then immediately placed back into the microplate reader, shaken for 5 seconds, and using the Kinetic mode, continuous detection was carried out at 37° C. for 30 to 60 minutes under the conditions of excitation light at 360 nm and emission light at 420 nm, with detection every 30 seconds. Taking the detection time as the X-axis and the fluorescence signal value as the Y-axis, the tubulin monomer polymerization curve was obtained. As shown in FIG. 1 and Table 1, the larger the Vmax value and the higher the maximum fluorescence signal value of the polymerization curve, the lower the inhibitory efficiency of the compound.

The next data set has as its system A-431 cells. Nature of the data set: Inhibition of A-431 cell proliferation. The following applies: Homo sapiens, 96 h, incubated 4 days. The class given is cell-based. On the procedure: (§1) Human cutaneous squamous cell carcinoma cell A-431 (ATCC, CRL-1555) and actinic keratosis patient-derived cell HT 297.T (ATCC, CRL-7782) proliferation assays were used to detect the inhibitory effect of small molecular compounds on cell proliferation.
(§2) A-431 cells and HT 297.T cells were cultured in DMEM medium containing 10% fetal bovine serum and grown at 37° C. in a 5% CO2 incubator. Cells on logarithmic phase were seeded into a 96-well cell culture plate at 1000 cells/well, 100 μL per well, and then cultured overnight at 37° C. in a 5% CO2 incubator. The next day, 100 μL of gradient-diluted 2× test compound solution was added to each well, with DMSO serving as a positive control, and 10 μM staurosporine (Aladdin, S102392) was set as a negative control group. After the addition of the compounds, the culture plate was incubated for another 4 days at 37° C. in a 5% CO2 incubator. After incubation, the Steady-Glo® luciferase assay system (Promega, G9243) was used according to the supplier's instructions to measure the fluorescence signal value on the Envision 2104 Multilabel Reader. The inhibition rate was calculated by the following formula, then the curve was plotted with the Log value of the inhibitor concentration as the X-axis and the inhibition rate as the Y-axis, and the IC50 was calculated using Graphpad 8.0.
(§3) Inhibition %=(positive control group signal−test well signal)/(positive control group signal−negative control group signal)*100

The next data set has as its system HT 297.T cells. Nature of the data set: Inhibition of HT 297.T cell proliferation. The class given is cell-based. The settings on record: Homo sapiens, 96 h, incubated 4 days. As to the method: as §1, §2, §3
The nature of data set [1]: Thermodynamic solubility test. The following applies: thermodynamic from solid. It is filed as physicochemical. As to the method: Phosphate buffer saline (PBS) with a pH of 7.4, FeSSIF solution with a pH of 6.5, and FaSSGF solution with a pH of 1.6 were prepared. The compound was accurately weighed and added to prepared phosphate buffer saline with a pH of 7.4, FeSSIF solution with a pH of 6.5, and FaSSGF solution with a pH of 1.6 to prepare into a solution with a concentration of 4 mg/mL. The solution was shaken at a speed of 1000 rpm for 1 hour, and then incubated overnight at room temperature. The incubated solution was centrifuged at 12,000 rpm for 10 minutes to remove undissolved particles, and the supernatant was transferred to a new centrifuge tube. After the supernatant was appropriately diluted, an acetonitrile solution containing internal standard was added, and a standard curve prepared with the same matrix was used for quantification.

Data set [2] is described as follows: Pharmacokinetic test in mice. The class given is in vivo. The following applies: mouse, plasma. As to the method:
For the pharmacokinetic test in mice, 3 male ICR mice, 20 to 25 g, were used, fasted overnight, and administered by tail vein injection (1 mg/kg or 5 mg/kg). Blood was collected before the administration, and at 15 min, 30 min, 1 hour, 2 hours, 4 hours, 8 hours, and 24 hours after the administration. Another 3 mice were taken and administered by oral gavage (5 mg/kg), and blood was collected before the administration, and at 15 min, 30 min, 1 hour, 2 hours, 4 hours, 8 hours, and 24 hours after the administration. Blood samples were centrifuged at 6800 g at 2 to 8° C. for 6 min, and plasma was collected and stored at −80° C. The plasma at each time point was taken and added with an acetonitrile solution containing internal standard in 3 to 5 times the amount. The mixture was vortexed and mixed for 1 min, and centrifuged at 13,000 rpm at 4° C. for 10 min. The supernatant was collected, added with water in 3 times the amount, and mixed. An appropriate amount of the mixture was taken for LC-MS/MS analysis. The main pharmacokinetic parameters were analyzed using WinNonlin 7.0 software with non-compartmental model.

Data set [3] in a line: Human liver microsome stability test. It is filed as in vitro ADME. The following applies: human liver microsomes (Corning), NADPH, 37° C. As to the method:
The human liver microsome stability test was performed by incubating the compound and human liver microsomes in vitro. First, the compound to be tested was prepared as a 10 mM stock solution in DMSO solvent, and then the compound was diluted to 0.5 mM with acetonitrile. Human liver microsomes (Corning) were diluted with PBS into a microsome/buffer solution, and the solution was used to dilute 0.5 mM compound into a working solution, in which the concentration of the compound was 1.5 μM, and the concentration of human liver microsomes was 0.75 mg/mL. A deep-well plate was taken, 30 μL of the working solution was added per well, and then 15 μL of pre-heated 6 mM NADPH solution was added thereto to initiate a reaction, and the reaction was incubated at 37° C. At 0 min, 5 min, 15 min, 30 min, and 45 min of the incubation, 135 μL of acetonitrile was added to the corresponding wells to terminate the reaction. After the reaction was terminated with acetonitrile at the last time point of 45 min, the deep-well plate was vortexed and shaken for 10 min (600 rpm), and then centrifuged for 15 min. After centrifugation, the supernatant was collected, and added with purified water in a ratio of 1:1 to perform LC-MS/MS detection. A ratio of a peak area of compound to a peak area of internal standard at each time point was obtained, and the peak area ratios of the compound at 5 min, 15 min, 30 min, and 45 min were compared with the peak area ratio at 0 min to calculate the remaining percentage of the compound at each time point. T1/2 was calculated by using Graphpad 5 software.
A general note: Liver microsomes are vesicles of endoplasmic reticulum, rich in cytochrome P450 enzymes.

Setting [4] is: male, ICR, mice, oral gavage 5 mg/kg.
[5] abbreviates: male ICR mice, intravenous injection 5 mg/kg.

Each structure is given as a SMILES string. In brackets after ≈: the same amount, converted by molar mass. Where two headings read alike, the source gives them in different places.

Broadly, the IC50 is the midpoint of a concentration-inhibition curve. As usually defined, the solubility is the dissolved amount per volume that the medium holds. In general, AUC(0-t) refers to exposure summed from dosing to a finite time, without extrapolation to infinity. One may read the Cmax as the peak of the concentration-time curve. One may read the clearance as a measure of how efficiently the substance is removed, as volume per time. A low value points to a low capacity for elimination. For orientation: half-life means how long it takes for the measured level to halve. Read a high half-life as slow loss. As to `C[C@@H]1COCCN1CCOc1ccc(-c2ccc(CC(=O)NCc3ccccc3)nc2)c(F)c1` [Compound I-24B, (R)—N-benzyl-2-(5-(2-fluoro-4-(2-(3-methylmorpholino)ethoxy)phenyl)pyridin-2-yl)acetamide], the Maximum signal value with tubulin monomer turned out to be 266. Also, the IC50 worked out at 6.47 nM in the data set on A-431 cells and 8.51 nM with HT 297.T cells. Further, the solubility in data set [1] (FeSSIF solution, FeSSIF pH 6.5, incubated overnight at room temperature, read-out: Solubility FeSSIF (pH 6.5)) was determined as 69.8 µg/mL (≈ 150 µM); in data set [1] (phosphate buffer saline (PBS), aqueous buffer, PBS pH 7.4, incubated overnight at room temperature, read-out: Solubility PBS (pH 7.4)), 11.3 µg/mL (≈ 24.4 µM). The AUC(0-t) in data set [2] (setting [4]) stood at 1420 ng·h/mL; in data set [2] (setting [5]), 2780 ng·h/mL. The molecule further returned a Cmax in data set [2] (setting [4]) of 1230 ng/mL. The molecule also gave a clearance in data set [2] (setting [5]) of 30.7 mL/min/kg. The same molecule gave a half-life at 1 μM in data set [3] of 13.9 min.
